Assay [1] has as its system HCT-116 (human colon) cells. The assay can be described thus: Cell-Titer Glo Cell Growth Inhibition Assay. It is filed as cell-based. The following applies: HCT-116 cells, 72 h incubation, CellTiter-Glo, read-out: HCT116 IC50. The protocol: A549-L (human lung), Colo 205 (human colon), HCT-116 (human colon), HT29 (human colon), MX-1 (human breast), SKOV3 (human ovary) and P388 (murine leukemia) cell lines were cultured in RPM11640 containing 10% fetal bovine serum at 37° C. in a 5% CO2 incubator. Cell lines were split into T75 flasks (Falcon #353136) two to three days prior to assay set up at density which yields approximately 70-80% confluency at time of harvest for assay. Cells were harvested using 0.25% trypsin with EDTA (Glibco/Invitrogen #25200-056), Cell counts were performed on cell suspensions using Trypan Blue exclusion staining, cells were then plated in 105 µL of culture media per well at the following densities in 96 well Costar #3916 black flat bottom plates: A549-L 500 cells/well, Colo205 500 cells/well, HCT-116 500 cells/well, HT29 500 cells/well, MX-1 500 cells/well, SKOV3 500 cells/well and P388 250 cells/well. All plates were placed at 5% CO2 37° C. overnight and then test compounds were added the following day. One plate of each cell type was treated with CellTiter-Glo (Promega #G7573) for a day 0 proliferation measurement and read as described below. The test compounds were prepared in clear U bottom polypropylene 96 well plates (Falcon #35-1190 with consecutive two fold dilutions. 9 uL of these dilutions was added into each well of the cell plates. The final concentration of DMSO in all wells was 0.15%. Cells were incubated at 37° C., 5% CO2 for 72 h. Following 72 h of incubation with compounds each plate was developed and read. CellTiter-Glo reagent was added to assay plates using a volume equivalent to the cell culture volume in the wells. Plates were shaken for approximately 2 min and incubated at rt for approximately 15 min and the chemiluminescent signal was read on the Victor V or Envison 2100 reader. […] Concentration of compound that inhibited 50% of cell growth (IC50) was analyzed by 4 or 6 parameter fit of data using XLfit, value of no cell addition was substracted from all samples for background.
Background: ATP-based viability assays read luminescence as a measure of living cells.

The next assay addresses T1, PLK1 kinase domain (Homo sapiens, UniProt P53350).
T1 construct: made in house; host or cells: baculovirus infected T. ni cells
The assay can be described thus: Assay for Inhibition of PLK1 (SPA, 33P-ATP). The class given is biochemical. The following applies: 2 nM PLK1 kinase domain, 1 μM ATP, 22° C.; read-out: PLK1 pIC50 (converted). The method, then: A. Preparation of 6× N-Terminal His-Tagged PLK Kinase Domain
All procedures were performed at 4° C. Cells were lysed in 50 mM HEPES, 200 mM NaCl, 50 mM imidazole, 5% glycerol; pH 7.5. The homogenate was centrifuged at 14K rpm in a SLA-1500 rotor for 1 hr and the supernatant filtered through a 1.2 micron filter. The supernatant was loaded onto a Nickel chelating Sepharose (Amersham Pharmacia) column and washed with lysis buffer. Protein was eluted using 20%, 30% and 100% buffer B steps where buffer B was 50 mM HEPES, 200 mM NaCl, 300 mM imidazole, 5% glycerol; pH 7.5. Fractions containing PLK were determined by SDS-PAGE. Fractions containing PLK were diluted five-fold with 50 mM HEPES, 1 mM DTT, 5% glycerol; pH 7.5, then loaded on an SP Sepharose (Amersham Pharmacia) column. After washing the column with 50 mM HEPES, 1 mM DTT, 5% glycerol; pH 7.5, PLK was step eluted with 50 mM HEPES, 1 mM DTT, 500 mM NaCl; 5% glycerol; pH 7.5. PLK was concentrated using a 10 kDa molecular weight cutoff membrane and then loaded onto a Superdex 200 gel filtration (Amersham Pharmacia) column equilibrated in 25 mM HEPES, 1 mM DTT, 500 mM NaCl, 5% glycerol; pH 7.5. Fractions containing PLK were determined by SDS-PAGE. PLK was pooled, aliquoted and stored at −80° C. Samples were quality controlled using mass spectrometry, N-terminal sequencing and amino acid analysis.
B. Enzyme Activity +/− Inhibitors was Determined as Follows:
All measurements were obtained under conditions where signal production increased linearly with time and enzyme. Test compounds were added to white 384-well assay plates (0.1 μL for 10 μL and some 20 μL assays, 1 μL for some 20 μL assays) at variable known concentrations in 100% DMSO. DMSO (1-5% final, as appropriate) and EDTA (65 mM in reaction) were used as controls.
Reaction Mix (10 or 20 μL) was quickly added to each well immediately following addition of enzyme via automated liquid handlers and incubated 1-1.5 h at 22° C. The 20 μL enzymatic reactions were stopped with 50 μL of stop mix (50 mM EDTA, 4.0 mg/mL Streptavidin SPA beads in Standard Dulbecco's PBS (without Mg^2+ and Ca^2+), 50 μM ATP) per well. The 10 μL reactions were stopped with 10 μL of stop mix (50 mM EDTA, 3.0 mg/mL Streptavidin-coupled SPA Imaging Beads (“LeadSeeker”) in Standard Dulbecco's PBS (without Mg^2+ and Ca^2+), 50 μM ATP) per well. Plates were sealed with clear plastic seals, spun at 500×g for 1 min or settled overnight, and counted in Packard TopCount for 30 seconds/well (regular SPA) or imaged using a Viewlux imager (LeadSeeker SPA). Signal above background (EDTA controls) was converted to percent inhibition relative to that obtained in control (DMSO-only) wells.

T1 sequence (P53350 21-346): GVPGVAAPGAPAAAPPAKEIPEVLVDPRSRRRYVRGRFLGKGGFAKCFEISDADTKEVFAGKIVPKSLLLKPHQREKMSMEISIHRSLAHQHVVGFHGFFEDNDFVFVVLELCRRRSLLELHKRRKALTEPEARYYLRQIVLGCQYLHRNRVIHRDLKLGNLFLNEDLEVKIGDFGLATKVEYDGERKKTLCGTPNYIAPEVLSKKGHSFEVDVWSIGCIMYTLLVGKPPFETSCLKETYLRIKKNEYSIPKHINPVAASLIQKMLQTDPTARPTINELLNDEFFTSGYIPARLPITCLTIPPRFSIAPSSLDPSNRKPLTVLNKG

Take `C[C@@H](Oc1cc(-n2cnc3cc(-c4ccnc(NCCN(C)C)c4)ccc32)sc1C(N)=O)c1ccccc1C(F)(F)F` [Example 1, 5-[5-(2-{[2-(Dimethylamino)ethyl]amino}-4-pyridinyl)-1H-benzimidazol-1-yl]-3-({(1R)-1-[2-(trifluoromethyl)phenyl]ethyl}oxy)-2-thiophenecarboxamide]: in assay [1], the IC50 was less than 500 nM.

Regarding `CNCCNc1cc(-c2ccc3c(c2)ncn3-c2cc(O[C@H](C)c3ccccc3C(F)(F)F)c(C(N)=O)s2)ccn1` [Example 2, 5-[5-(2-{[2-(Methylamino)ethyl]amino}-4-pyridinyl)-1H-benzimidazol-1-yl]-3-({(1R)-1-[2-(trifluoromethyl)phenyl]ethyl}oxy)-2-thiophenecarboxamide], the results for the IC50 (in assay [1]; on PLK1 kinase domain) were less than 500 nM and less than 100 nM, respectively.

In the case of `C[C@@H](Oc1cc(-n2cnc3cc(-c4ccnc(NC(=O)CN(C)C)c4)ccc32)sc1C(N)=O)c1ccccc1C(F)(F)F` [Example 3, 5-(5-{2-[(N,N-dimethylglycyl)amino]-4-pyridinyl}-1H-benzimidazol-1-yl)-3-({(1R)-1-[2-(trifluoromethyl)phenyl]ethyl}oxy)-2-thiophenecarboxamide], the IC50 was less than 500 nM in assay [1] and less than 100 nM on PLK1 kinase domain.

Regarding `C[C@@H](Oc1cc(-n2cnc3cc(-c4ccnc(NC(=O)CN)c4)ccc32)sc1C(N)=O)c1ccccc1C(F)(F)F` [Example 4, 5-{5-[2-(Glycylamino)-4-pyridinyl]-1H-benzimidazol-1-yl}-3-({(1R)-1-[2-(trifluoromethyl)phenyl]ethyl}oxy)-2-thiophenecarboxamide], the results for the IC50 (in assay [1]; at PLK1 kinase domain) were less than 500 nM and less than 100 nM, respectively.

Take `C[C@@H](Oc1cc(-n2cnc3cc(-c4ccnc(NCCCN(C)C)c4)ccc32)sc1C(N)=O)c1ccccc1C(F)(F)F` [Example 5, 5-[5-(2-{[3-(Dimethylamino)propyl]amino}-4-pyridinyl)-1H-benzimidazol-1-yl]-3-([(1R)-1-[2-(trifluoromethyl)phenyl]ethyl]oxy)-2-thiophenecarboxamide]: the IC50 in assay [1] was less than 500 nM; at PLK1 kinase domain it was less than 100 nM.

As for `C[C@@H](Oc1cc(-n2cnc3cc(-c4ccnc(NCCN)c4)ccc32)sc1C(N)=O)c1ccccc1C(F)(F)F` [Example 6, 5-(5-{2-[(2-Aminoethyl)amino]-4-pyridinyl}-1H-benzimidazol-1-yl)-3-([(1R)-1-[2-(trifluoromethyl)phenyl]ethyl]oxy)-2-thiophenecarboxamide], the IC50 was less than 500 nM in assay [1] and less than 100 nM at PLK1 kinase domain.

Regarding `C[C@@H](Oc1cc(-n2cnc3cc(-c4ccnc(N(C)CCN(C)C)c4)ccc32)sc1C(N)=O)c1ccccc1C(F)(F)F` [Example 7, 5-(5-{2-[[2-(Dimethylamino)ethyl](methyl)amino]-4-pyridinyl}-1H-benzimidazol-1-yl)-3-({(1R)-1-[2-(trifluoromethyl)phenyl]ethyl}oxy)-2-thiophenecarboxamide], the IC50 in assay [1] is less than 500 nM; on PLK1 kinase domain, less than 100 nM.

As for `C[C@@H](Oc1cc(-n2cnc3cc(-c4ccnc(N(C)CCCN(C)C)c4)ccc32)sc1C(N)=O)c1ccccc1C(F)(F)F` [Example 8, 5-(5-{2-[[3-(Dimethylamino)propyl](methyl)amino]-4-pyridinyl}-1H-benzimidazol-1-yl)-3-({(1R)-1-[2-(trifluoromethyl)phenyl]ethyl}oxy)-2-thiophenecarboxamide], the IC50 in assay [1] was less than 500 nM; at PLK1 kinase domain it was less than 100 nM.

For the molecule `C[C@@H](Oc1cc(-n2cnc3cc(-c4ccnc(NCCCN5CCN(C)CC5)c4)ccc32)sc1C(N)=O)c1ccccc1C(F)(F)F` [Example 9, 5-[5-(2-{[3-(4-Methyl-1-piperazinyl)propyl]amino}-4-pyridinyl)-1H-benzimidazol-1-yl]-3-({(1R)-1-[2-(trifluoromethyl)phenyl]ethyl}oxy)-2-thiophenecarboxamide], the values for the IC50 (in assay [1]; on PLK1 kinase domain) were less than 500 nM and less than 100 nM, respectively.

Consider `C[C@@H](Oc1cc(-n2cnc3cc(-c4ccnc(NCCN(C)C)c4)ccc32)sc1C(N)=O)c1ccccc1Cl` [Example 10, 3-{[(1R)-1-(2-chlorophenyl)ethyl]oxy}-5-[5-(2-{[2-(dimethylamino)ethyl]amino}-4-pyridinyl)-1H-benzimidazol-1-yl]-2-thiophenecarboxamide], for which the IC50 in assay [1] is less than 500 nM; on PLK1 kinase domain it was less than 100 nM.

With `C[C@@H](Oc1cc(-n2cnc3cc(-c4ccnc(NCCCN5CCN(C)CC5)c4)ccc32)sc1C(N)=O)c1ccccc1Cl` [Example 11, 3-{[(1R)-1-(2-chlorophenyl)ethyl]oxy}-5-[5-(2-{[3-(4-methyl-1-piperazinyl)propyl]amino}-4-pyridinyl)-1H-benzimidazol-1-yl]-2-thiophenecarboxamide], the IC50 in assay [1] is less than 500 nM; at PLK1 kinase domain, less than 100 nM.

Consider `C[C@@H](Oc1cc(-n2cnc3cc(-c4ccnc(NCCN5CCOCC5)c4)ccc32)sc1C(N)=O)c1ccccc1Cl` [Example 12, 3-{[(1R)-1-(2-chlorophenyl)ethyl]oxy}-5-[5-(2-{[2-(4-morpholinyl)ethyl]amino}-4-pyridinyl)-1H-benzimidazol-1-yl]-2-thiophenecarboxamide], for which the IC50 was less than 500 nM in assay [1] and less than 100 nM on PLK1 kinase domain.

With `C[C@@H](Oc1cc(-n2cnc3cc(-c4ccnc(NC[C@@H](O)CO)c4)ccc32)sc1C(N)=O)c1ccccc1Cl` [Example 13, 3-{[(1R)-1-(2-chlorophenyl)ethyl]oxy}-5-[5-(2-{[(2R)-2,3-dihydroxypropyl]amino}-4-pyridinyl)-1H-benzimidazol-1-yl]-2-thiophenecarboxamide], the IC50 was less than 500 nM in assay [1] and less than 100 nM at PLK1 kinase domain.

For `C[C@@H](Oc1cc(-n2cnc3cc(-c4ccnc(NCCO)c4)ccc32)sc1C(N)=O)c1ccccc1Cl` [Example 14, 3-{[(1R)-1-(2-chlorophenyl)ethyl]oxy}-5-(5-{2-[(2-hydroxyethyl)amino]-4-pyridinyl}-1H-benzimidazol-1-yl)-2-thiophenecarboxamide], in assay [1], the IC50 is less than 500 nM.

In the case of `CC(C)[C@H](N)C(=O)OCCNc1cc(-c2ccc3c(c2)ncn3-c2cc(O[C@H](C)c3ccccc3Cl)c(C(N)=O)s2)ccn1` [Example 15, 2-({4-[1-(5-(Aminocarbonyl)-4-{[(1R)-1-(2-chlorophenyl)ethyl]oxy}-2-thienyl)-1H-benzimidazol-5-yl]-2-pyridinyl}amino)ethyl L-valinate], the IC50 in assay [1] is less than 500 nM; on PLK1 kinase domain, less than 100 nM.

The values are drawn from patent publication US20100056525A1, “5- AND 6- SUBSTITUTED BENZIMIDAZOLE THIOPHENE COMPOUNDS” (priority 2006, published 2010).
